The test system of assay [1] is p52 (NF-kB2) nuclear translocation in HeLa cells. The experiment in a line: p52 (NF-kB2) nuclear translocation assay in HeLa cells, anti-lymphotoxin beta receptor antibody stimulated (non-classical NF-kB signaling), high content imaging. It counts as cell-based. To be noted: Homo sapiens, 100 ng/mL anti-lymphotoxin beta receptor antibody for 5 hours, read-out: p52 HeLa Transloc Assay (IC50). How it is done: (§1) Several assays were developed to profile the cellular activities of NIK inhibitors.
(§2) (2) A second set of cell assay are used to define the selectivity of NIK inhibitors toward inhibition of classical vs. non-classical NF-kB signaling and rely on quantification of the nuclear translocation of p52 (NF-kB2) and REL-A (p65) using high content cellular imaging. For the p52 (non-classical NF-kB signaling) nuclear translocation assay, HeLa cells are treated with different concentrations of compounds (0.2% DMSO final) in medium containing 10% fetal bovine serum and then stimulated with 100 ng/mL of an anti-lymphotoxin beta receptor antibody (R&D Systems) for 5 hours. In the REL-A nuclear translocation assay, HeLa cells are incubated with compounds (0.2% DMSO final) for 4.5 hours in medium containing 10% fetal bovine serum before stimulating them with 10 ng/mL tumor necrosis factor (TNF)-α (R&D Systems) for 30 minutes. Cells are fixed with 4% paraformaldehyde, permeabilized by adding 0.1% Triton X-100 in phosphate buffered saline, and then are incubated with either 2 ug/mL anti-p52 antibody (Millipore) or 400 ng/mL anti-REL-A (p65) antibody (Santa Cruz Biotechnology). Finally, the cells are incubated with an Alexa488-labeled secondary antibody (Invitrogen) and DRAQ5 DNA stain (Biostatus). Imaging is carried out using an Opera reader (Perkin Elmer) and data are analyzed with the aid of Acapella software (Perkin Elmer). The p52 or REL-Atranslocation into the nucleus is quantified by the ratio of the nuclear to cytoplasmic signal intensity. […] The compounds in listed in Table 1 have the corresponding inhibitory value (IC50 in micromolar) for NIK p52 Translocation Assay as set forth in Table 2.
(§3) The compounds in listed in Table 1 have the corresponding inhibitory values (IC50 in micromolar) for the Translocation Assays as set forth in Table 2.

Assay [2] deals with T1, nuclear factor-kappa B (NF-kB)-inducing kinase (NIK) (Homo sapiens, UniProt Q99558).
T1 construct: made in house; host or cells: baculovirus-infected insect cells
T1 sequence (Q99558 whole entry): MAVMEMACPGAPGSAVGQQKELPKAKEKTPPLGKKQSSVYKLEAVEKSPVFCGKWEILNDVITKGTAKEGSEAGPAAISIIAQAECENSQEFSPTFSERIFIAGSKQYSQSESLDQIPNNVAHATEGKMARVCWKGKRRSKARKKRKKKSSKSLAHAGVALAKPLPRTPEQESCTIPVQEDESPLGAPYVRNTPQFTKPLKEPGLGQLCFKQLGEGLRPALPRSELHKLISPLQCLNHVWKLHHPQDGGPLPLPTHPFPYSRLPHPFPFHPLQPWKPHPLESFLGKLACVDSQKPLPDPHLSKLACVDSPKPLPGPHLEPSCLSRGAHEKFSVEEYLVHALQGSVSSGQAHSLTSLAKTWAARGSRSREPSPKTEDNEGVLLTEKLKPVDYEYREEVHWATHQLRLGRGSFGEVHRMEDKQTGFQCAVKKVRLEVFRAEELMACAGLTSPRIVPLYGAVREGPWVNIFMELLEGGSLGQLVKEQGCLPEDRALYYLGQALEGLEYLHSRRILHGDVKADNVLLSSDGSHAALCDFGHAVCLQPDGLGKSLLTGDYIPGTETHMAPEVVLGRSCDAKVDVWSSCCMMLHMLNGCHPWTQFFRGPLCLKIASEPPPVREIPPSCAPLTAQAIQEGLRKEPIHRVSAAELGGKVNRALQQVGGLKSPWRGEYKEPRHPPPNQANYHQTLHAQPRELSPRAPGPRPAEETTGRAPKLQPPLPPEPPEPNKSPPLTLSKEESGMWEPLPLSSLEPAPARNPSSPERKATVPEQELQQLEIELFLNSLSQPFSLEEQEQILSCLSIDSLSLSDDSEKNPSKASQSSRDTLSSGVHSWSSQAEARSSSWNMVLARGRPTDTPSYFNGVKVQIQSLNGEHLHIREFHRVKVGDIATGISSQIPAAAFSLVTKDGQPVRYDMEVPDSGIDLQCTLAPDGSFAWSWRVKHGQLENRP
The experiment in a line: NIK enzyme inhibition assay (Transcreener ADP fluorescence polarization, NIK ADP-FP). The assay is classed as biochemical. In general terms: In fluorescence polarisation assays a small probe gives low polarisation when free and higher when bound to something large.

The test system of assay [3] is REL-A (p65) nuclear translocation in HeLa cells. The experiment in a line: REL-A (p65) nuclear translocation assay in HeLa cells, TNF-α stimulated (classical NF-kB signaling), high content imaging. The assay is classed as cell-based. To be noted: Homo sapiens, HeLa, compound 4.5 h, then 10 ng/mL TNF-α for 30 minutes, read-out: REL-A HeLa Transloc Assay (IC50). How it is done:
as §1, §2, §3

For `CN1CC[C@@](O)(C#Cc2cccc(-c3nc(C(N)=O)cc(N4CCCC45COC5)n3)c2)C1=O` [Example 21, 2-[3-[2-[(3R)-3-hydroxy-1-methyl-2-oxo-pyrrolidin-3-yl]ethynyl]phenyl]-6-(2-oxa-8-azaspiro[3.4]octan-8-yl) pyrimidine-4-carboxamide], the half-maximal inhibitory concentration (IC50) in assay [1] is 84.2 nM; in assay [3], > 20000 nM. Also, the Ki in assay [2] was 1.2 nM.
Turning to `C[C@@H]1CCN1c1cc(C(N)=O)nc(-c2cccc(C#C[C@]3(O)CCN(C)C3=O)c2)n1` [Example 22, 2-[3-[2-[(3R)-3-hydroxy-1-methyl-2-oxo-pyrrolidin-3-yl]ethynyl]phenyl]-6-[(2R)-2-methylazetidin-1-yl]pyrimidine-4-carboxamide], the half-inhibitory concentration (IC50) in assay [1] is 85 nM; in assay [3] it was > 20000 nM. Affinity in assay [2] was put at a Ki of 1.14 nM.
Take `C[C@H]1CCN1c1cc(C(N)=O)nc(-c2cccc(C#C[C@]3(O)CCN(C)C3=O)c2)n1` [Example 23, 2-[3-[2-[(3R)-3-hydroxy-1-methyl-2-oxo-pyrrolidin-3-yl]ethynyl]phenyl]-6-[(2S)-2-methylazetidin-1-yl] pyrimidine-4-carboxamide]: the half-inhibitory concentration (IC50) in assay [1] is 96.1 nM; in assay [3] it was > 20000 nM. The same molecule returned an inhibition constant (Ki) in assay [2] of 1.48 nM.
For `CN1CC[C@@](O)(C#Cc2cccc(-c3nc(C(N)=O)cc(N4CC[C@@H]4c4cccs4)n3)c2)C1=O` [Example 26, 2-[3-[2-[(3R)-3-hydroxy-1-methyl-2-oxo-pyrrolidin-3-yl]ethynyl]phenyl]-6-[(2R)-2-(2-thienyl)azetidin-1-yl] pyrimidine-4-carboxamide], the IC50 is 110 nM in assay [1] and > 20000 nM in assay [3]. In assay [2], this molecule had a Ki of 4.85 nM.
The corresponding values for `CN1CC[C@@](O)(C#Cc2cccc(-c3nc(C(N)=O)cc(N4CC[C@H]4c4cccs4)n3)c2)C1=O` [Example 27, 2-[3-[2-[(3R)-3-hydroxy-1-methyl-2-oxo-pyrrolidin-3-yl]ethynyl]phenyl]-6-[(2S)-2-(2-thienyl)azetidin-1-yl]pyrimidine-4-carboxamide] are 87.2 nM, > 20000 nM and 3.34 nM.
The like results for `CC(C)C[C@@H]1CCCN1c1cc(C(N)=O)nc(-c2cccc(C#C[C@]3(O)CCN(C)C3=O)c2)n1` [Example 28, 2-[3-[2-[(3R)-3-hydroxy-1-methyl-2-oxo-pyrrolidin-3-yl]ethynyl]phenyl]-6-[(2S)-2-isobutylpyrrolidin-1-yl] pyrimidine-4-carboxamide] were, in that order, 229 nM, > 20000 nM and 2.38 nM.
On to `CN1CC[C@@](O)(C#Cc2cccc(-c3nc(N[C@@H]4CCOC4)cc(C(N)=O)n3)c2)C1=O` [Example 31, 2-[3-[2-[(3R)-3-hydroxy-1-methyl-2-oxo-pyrrolidin-3-yl]ethynyl]phenyl]-6-[[(3R)-tetrahydrofuran-3-yl]amino] pyrimidine-4-carboxamide], for which the IC50 in assay [1] was 479 nM; in assay [3], > 20000 nM. This molecule also returned an inhibition constant Ki in assay [2] of 0.93 nM.
Regarding `CN1CC[C@@](O)(C#Cc2cccc(-c3nccc(C(N)=O)n3)c2)C1=O` [Example 32, 2-[3-[2-[(3R)-3-hydroxy-1-methyl-2-oxo-pyrrolidin-3-yl]ethynyl]phenyl] pyrimidine-4-carboxamide], the IC50 is 244 nM in assay [1] and > 20000 nM in assay [3]. The molecule also returned an inhibition constant (Ki) in assay [2] of 0.22 nM.
For the molecule `CN1CC[C@@](O)(C#Cc2cccc(-c3nc(C(N)=O)cc(-c4ccnn4C)n3)c2)C1=O` [Example 33, 2-[3-[2-[(3R)-3-hydroxy-1-methyl-2-oxo-pyrrolidin-3-yl]ethynyl]phenyl]-6-(2-methylpyrazol-3-yl) pyrimidine-4-carboxamide], the IC50 in assay [1] was 36.3 nM; in assay [3], > 28000 nM. Besides, the inhibition constant Ki in assay [2] is < 0.05 nM.
The corresponding values for `CN1CC[C@@](O)(C#Cc2cccc(-c3nc4c(c(C(N)=O)n3)CCCC4)c2)C1=O` [Example 34, 2-[3-[2-[(3R)-3-hydroxy-1-methyl-2-oxo-pyrrolidin-3-yl]ethynyl]phenyl]-5,6,7,8-tetrahydroquinazoline-4-carboxamide] are 138 nM, > 20000 nM and 1.42 nM.
The corresponding values for `CN1CC[C@@](O)(C#Cc2cccc(-c3nc4c(c(C(N)=O)n3)CC(C)(C)CC4)c2)C1=O` [Example 35, 2-[3-[2-[(3R)-3-hydroxy-1-methyl-2-oxo-pyrrolidin-3-yl]ethynyl]phenyl]-6,6-dimethyl-7,8-dihydro-5H-quinazoline-4-carboxamide] are 386 nM, > 20000 nM and 2.23 nM.
Consider `CN1CC[C@@](O)(C#Cc2cccc(-c3nc(C(N)=O)nc4ccsc34)c2)C1=O` [Example 36, 4-[3-[2-[(3R)-3-hydroxy-1-methyl-2-oxo-pyrrolidin-3-yl]ethynyl]phenyl]thieno[3,2-d]pyrimidine-2-carboxamide], for which the values for the concentration for half-maximal inhibition (IC50) in assay [1] and in assay [3] were 314 nM and > 20000 nM, respectively. In assay [2], this molecule displayed a Ki of 0.184 nM.
The corresponding values for `CN1CC[C@@](O)(C#Cc2cccc(-c3nc(C(N)=O)c4sccc4n3)c2)C1=O` [Example 37, 2-[3-[2-[(3R)-3-hydroxy-1-methyl-2-oxo-pyrrolidin-3-yl]ethynyl]phenyl]thieno[3,2-d]pyrimidine-4-carboxamide] are 13.9 nM, > 20000 nM and 0.12 nM.
On to `CN1CC[C@@](O)(C#Cc2cccc(-c3nc4c(c(C(N)=O)n3)CCC4)c2)C1=O` [Example 38, 2-[3-[2-[(3R)-3-hydroxy-1-methyl-2-oxo-pyrrolidin-3-yl]ethynyl]phenyl]-6,7-dihydro-5H-cyclopenta [d]pyrimidine-4-carboxamide], for which the IC50 was 49.1 nM in assay [1] and > 20000 nM in assay [3]. Further, the Ki in assay [2] was found to be 0.19 nM.
In the case of `CN1CC[C@@](O)(C#Cc2cccc(-c3nc(C(N)=O)c4ccn(C)c4n3)c2)C1=O` [Example 39, 2-[3-[2-[(3R)-3-hydroxy-1-methyl-2-oxo-pyrrolidin-3-yl]ethynyl]phenyl]-7-methyl-pyrrolo[2,3-d] pyrimidine-4-carboxamide], the IC50 in assay [1] was found to be 20.9 nM; in assay [3], 7700 nM. The Ki in assay [2] was 0.13 nM.
As to `CN1CC[C@@](O)(C#Cc2cccc(-c3nc(C(N)=O)c4cccc(F)c4n3)c2)C1=O` [Example 41, 8-fluoro-2-[3-[2-[(3R)-3-hydroxy-1-methyl-2-oxo-pyrrolidin-3-yl]ethynyl]phenyl]quinazoline-4-carboxamide], the IC50 was 26.4 nM in assay [1] and > 20000 nM in assay [3]. In assay [2], this molecule registered an inhibition constant Ki of 0.22 nM.
Regarding `CN1CC[C@@](O)(C#Cc2cccc(-c3nc(C(N)=O)c4cnn(C)c4n3)c2)C1=O` [Example 42, 6-(3-[2-[(3R)-3-hydroxy-1-methyl-2-oxopyrrolidin-3-yl]ethynyl]phenyl)-1-methyl-1H-pyrazolo[3,4-d] pyrimidine-4-carboxamide], the IC50 was 10.9 nM in assay [1] and > 20000 nM in assay [3]. This molecule also displayed an inhibition constant Ki in assay [2] of 0.1 nM.
Take `CN1CC[C@@](O)(C#Cc2cccc(-c3nc(C(N)=O)c4ccc(F)cc4n3)c2)C1=O` [Example 43, 7-fluoro-2-(3-[2-[(3R)-3-hydroxy-1-methyl-2-oxopyrrolidin-3-yl]ethynyl]phenyl)quinazoline-4-carboxamide]: the concentration for half-maximal inhibition (IC50) was 14.1 nM in assay [1] and > 20000 nM in assay [3]. Also, the Ki in assay [2] stood at 0.08 nM.
The corresponding values for `COc1ccc2c(C(N)=O)nc(-c3cccc(C#C[C@]4(O)CCN(C)C4=O)c3)nc2c1` [Example 44, 2-(3-[2-[(3R)-3-hydroxy-1-methyl-2-oxopyrrolidin-3-yl]ethynyl]phenyl)-7-methoxyquinazoline-4-carboxamide] are 17.5 nM, > 20000 nM and 0.11 nM.
Consider `CN1CC[C@@](O)(C#Cc2cccc(-c3nc(C(N)=O)cc4c3CCC4)c2)C1=O` [Example 46, 1-(3-[2-[(3R)-3-hydroxy-1-methyl-2-oxopyrrolidin-3-yl]ethynyl]phenyl)-5H,6H,7H-cyclopenta[c] pyridine-3-carboxamide], for which the IC50 is 103 nM in assay [1] and > 20000 nM in assay [3]. In assay [2], the Ki was found to be 0.62 nM.
The like results for `CN1CC[C@@](O)(C#Cc2cccc(-c3nc(C(N)=O)cc4c3ncn4C)c2)C1=O` [Example 47, 4-[3-[2-[(3R)-3-hydroxy-1-methyl-2-oxo-pyrrolidin-3-yl]ethynyl]phenyl]-1-methyl-imidazo[4,5-c] pyridine-6-carboxamide] were, in that order, 270 nM, ≥ 20000 nM and 0.94 nM.

Usually IC50 stands for the midpoint of a concentration-inhibition curve. Broadly, the Ki is a dissociation constant, usually derived from enzyme kinetics or from competition with a known ligand. Higher therefore signals lower affinity.

Values taken from patent publication US20160185797A1, “ALKYNYL ALCOHOLS AND METHODS OF USE” (Genentech, Inc., priority 2013, published 2016).
